From the NIST ThermoML archive (doi:10.1021/je034087q)

Assay: xn = mol fraction of the nth substance listed

CC(C)=O [acetone] + O=C=O
Conditions | mass density [kg/m3]
323.15 K, 9680 kPa, Fluid (supercritical or subcritical phases), x2 = 0.952 | 588
323.15 K, 9710 kPa, Fluid (supercritical or subcritical phases), x2 = 0.902 | 707
323.15 K, 9750 kPa, Fluid (supercritical or subcritical phases), x2 = 0.933 | 656
323.15 K, 9750 kPa, Fluid (supercritical or subcritical phases), x2 = 0.952 | 594
323.15 K, 9840 kPa, Fluid (supercritical or subcritical phases), x2 = 0.948 | 625
323.15 K, 9850 kPa, Fluid (supercritical or subcritical phases), x2 = 0.952 | 603
323.15 K, 9870 kPa, Fluid (supercritical or subcritical phases), x2 = 0.902 | 711
323.15 K, 9900 kPa, Fluid (supercritical or subcritical phases), x2 = 0.811 | 790
323.15 K, 9900 kPa, Fluid (supercritical or subcritical phases), x2 = 0.882 | 743
323.15 K, 9900 kPa, Fluid (supercritical or subcritical phases), x2 = 0.933 | 664
323.15 K, 9940 kPa, Fluid (supercritical or subcritical phases), x2 = 0.952 | 611
323.15 K, 9960 kPa, Fluid (supercritical or subcritical phases), x2 = 0.772 | 803
323.15 K, 10020 kPa, Fluid (supercritical or subcritical phases), x2 = 0.902 | 715
323.15 K, 10030 kPa, Fluid (supercritical or subcritical phases), x2 = 0.948 | 638
323.15 K, 10050 kPa, Fluid (supercritical or subcritical phases), x2 = 0.933 | 669
323.15 K, 10100 kPa, Fluid (supercritical or subcritical phases), x2 = 0.952 | 623
323.15 K, 10160 kPa, Fluid (supercritical or subcritical phases), x2 = 0.902 | 719
323.15 K, 10220 kPa, Fluid (supercritical or subcritical phases), x2 = 0.933 | 678
323.15 K, 10290 kPa, Fluid (supercritical or subcritical phases), x2 = 0.882 | 748
323.15 K, 10290 kPa, Fluid (supercritical or subcritical phases), x2 = 0.948 | 651
323.15 K, 10320 kPa, Fluid (supercritical or subcritical phases), x2 = 0.952 | 636
323.15 K, 10360 kPa, Fluid (supercritical or subcritical phases), x2 = 0.902 | 722
323.15 K, 10420 kPa, Fluid (supercritical or subcritical phases), x2 = 0.933 | 684
323.15 K, 10440 kPa, Fluid (supercritical or subcritical phases), x2 = 0.576 | 818
323.15 K, 10490 kPa, Fluid (supercritical or subcritical phases), x2 = 0.811 | 796
323.15 K, 10540 kPa, Fluid (supercritical or subcritical phases), x2 = 0.772 | 807
323.15 K, 10570 kPa, Fluid (supercritical or subcritical phases), x2 = 0.902 | 727
323.15 K, 10590 kPa, Fluid (supercritical or subcritical phases), x2 = 0.952 | 649
323.15 K, 10600 kPa, Fluid (supercritical or subcritical phases), x2 = 0.948 | 666
323.15 K, 10630 kPa, Fluid (supercritical or subcritical phases), x2 = 0.882 | 754
323.15 K, 10640 kPa, Fluid (supercritical or subcritical phases), x2 = 0.933 | 693
323.15 K, 10780 kPa, Fluid (supercritical or subcritical phases), x2 = 0.902 | 733
323.15 K, 10800 kPa, Fluid (supercritical or subcritical phases), x2 = 0.186 | 785
323.15 K, 10880 kPa, Fluid (supercritical or subcritical phases), x2 = 0.933 | 699
323.15 K, 10920 kPa, Fluid (supercritical or subcritical phases), x2 = 0.952 | 663
323.15 K, 10950 kPa, Fluid (supercritical or subcritical phases), x2 = 0.882 | 761
323.15 K, 10980 kPa, Fluid (supercritical or subcritical phases), x2 = 0.948 | 679
323.15 K, 10990 kPa, Fluid (supercritical or subcritical phases), x2 = 0.811 | 801
323.15 K, 11000 kPa, Fluid (supercritical or subcritical phases), x2 = 0.902 | 736
323.15 K, 11060 kPa, Fluid (supercritical or subcritical phases), x2 = 0.772 | 811
323.15 K, 11160 kPa, Fluid (supercritical or subcritical phases), x2 = 0.933 | 707
323.15 K, 11260 kPa, Fluid (supercritical or subcritical phases), x2 = 0.902 | 740
323.15 K, 11280 kPa, Fluid (supercritical or subcritical phases), x2 = 0.952 | 678
323.15 K, 11440 kPa, Fluid (supercritical or subcritical phases), x2 = 0.882 | 764
323.15 K, 11460 kPa, Fluid (supercritical or subcritical phases), x2 = 0.933 | 714
323.15 K, 11480 kPa, Fluid (supercritical or subcritical phases), x2 = 0.811 | 805
323.15 K, 11480 kPa, Fluid (supercritical or subcritical phases), x2 = 0.948 | 696
323.15 K, 11500 kPa, Fluid (supercritical or subcritical phases), x2 = 0.902 | 744
323.15 K, 11640 kPa, Fluid (supercritical or subcritical phases), x2 = 0.383 | 806
323.15 K, 11760 kPa, Fluid (supercritical or subcritical phases), x2 = 0.772 | 815
323.15 K, 11760 kPa, Fluid (supercritical or subcritical phases), x2 = 0.902 | 751
323.15 K, 11780 kPa, Fluid (supercritical or subcritical phases), x2 = 0.952 | 694
323.15 K, 11800 kPa, Fluid (supercritical or subcritical phases), x2 = 0.933 | 724
323.15 K, 11870 kPa, Fluid (supercritical or subcritical phases), x2 = 0.576 | 825
323.15 K, 11870 kPa, Fluid (supercritical or subcritical phases), x2 = 0.882 | 769
323.15 K, 11950 kPa, Fluid (supercritical or subcritical phases), x2 = 0.811 | 807
323.15 K, 12030 kPa, Fluid (supercritical or subcritical phases), x2 = 0.902 | 754
323.15 K, 12090 kPa, Fluid (supercritical or subcritical phases), x2 = 0.948 | 711
323.15 K, 12200 kPa, Fluid (supercritical or subcritical phases), x2 = 0.933 | 731
323.15 K, 12260 kPa, Fluid (supercritical or subcritical phases), x2 = 0.882 | 779
323.15 K, 12300 kPa, Fluid (supercritical or subcritical phases), x2 = 0.902 | 757
323.15 K, 12370 kPa, Fluid (supercritical or subcritical phases), x2 = 0.772 | 818
323.15 K, 12400 kPa, Fluid (supercritical or subcritical phases), x2 = 0.952 | 710
323.15 K, 12560 kPa, Fluid (supercritical or subcritical phases), x2 = 0.811 | 813
323.15 K, 12620 kPa, Fluid (supercritical or subcritical phases), x2 = 0.902 | 762
323.15 K, 12620 kPa, Fluid (supercritical or subcritical phases), x2 = 0.933 | 740
323.15 K, 12680 kPa, Fluid (supercritical or subcritical phases), x2 = 0.186 | 788
323.15 K, 12750 kPa, Fluid (supercritical or subcritical phases), x2 = 0.948 | 727
323.15 K, 12960 kPa, Fluid (supercritical or subcritical phases), x2 = 0.902 | 769
323.15 K, 12970 kPa, Fluid (supercritical or subcritical phases), x2 = 0.882 | 785
323.15 K, 13090 kPa, Fluid (supercritical or subcritical phases), x2 = 0.811 | 818
323.15 K, 13130 kPa, Fluid (supercritical or subcritical phases), x2 = 0.772 | 823
323.15 K, 13130 kPa, Fluid (supercritical or subcritical phases), x2 = 0.933 | 748
323.15 K, 13170 kPa, Fluid (supercritical or subcritical phases), x2 = 0.952 | 726
323.15 K, 13190 kPa, Fluid (supercritical or subcritical phases), x2 = 0.576 | 829
323.15 K, 13240 kPa, Fluid (supercritical or subcritical phases), x2 = 0.902 | 771
323.15 K, 13450 kPa, Fluid (supercritical or subcritical phases), x2 = 0.902 | 775
323.15 K, 13560 kPa, Fluid (supercritical or subcritical phases), x2 = 0.383 | 813
323.15 K, 13560 kPa, Fluid (supercritical or subcritical phases), x2 = 0.882 | 791
323.15 K, 13610 kPa, Fluid (supercritical or subcritical phases), x2 = 0.811 | 821
323.15 K, 13640 kPa, Fluid (supercritical or subcritical phases), x2 = 0.948 | 744
323.15 K, 13700 kPa, Fluid (supercritical or subcritical phases), x2 = 0.933 | 758
323.15 K, 13770 kPa, Fluid (supercritical or subcritical phases), x2 = 0.902 | 776
323.15 K, 13790 kPa, Fluid (supercritical or subcritical phases), x2 = 0.772 | 827
323.15 K, 14080 kPa, Fluid (supercritical or subcritical phases), x2 = 0.186 | 789
323.15 K, 14080 kPa, Fluid (supercritical or subcritical phases), x2 = 0.952 | 744
323.15 K, 14100 kPa, Fluid (supercritical or subcritical phases), x2 = 0.902 | 781
323.15 K, 14290 kPa, Fluid (supercritical or subcritical phases), x2 = 0.933 | 767
323.15 K, 14430 kPa, Fluid (supercritical or subcritical phases), x2 = 0.902 | 785
323.15 K, 14460 kPa, Fluid (supercritical or subcritical phases), x2 = 0.811 | 826
323.15 K, 14550 kPa, Fluid (supercritical or subcritical phases), x2 = 0.772 | 831
323.15 K, 14550 kPa, Fluid (supercritical or subcritical phases), x2 = 0.882 | 800
323.15 K, 14590 kPa, Fluid (supercritical or subcritical phases), x2 = 0.952 | 751
323.15 K, 14730 kPa, Fluid (supercritical or subcritical phases), x2 = 0.948 | 762
323.15 K, 14780 kPa, Fluid (supercritical or subcritical phases), x2 = 0.902 | 789
323.15 K, 14810 kPa, Fluid (supercritical or subcritical phases), x2 = 0.383 | 817
323.15 K, 14920 kPa, Fluid (supercritical or subcritical phases), x2 = 0.933 | 777
323.15 K, 14950 kPa, Fluid (supercritical or subcritical phases), x2 = 0.186 | 791
323.15 K, 15040 kPa, Fluid (supercritical or subcritical phases), x2 = 0.576 | 834
323.15 K, 15140 kPa, Fluid (supercritical or subcritical phases), x2 = 0.902 | 792
323.15 K, Liquid, Other PVT measurement, x2 = 0.186 | 760
323.15 K, Liquid, Other PVT measurement, x2 = 0.383 | 787
323.15 K, Liquid, Other PVT measurement, x2 = 0.576 | 795
323.15 K, Liquid, Other PVT measurement, x2 = 0.772 | 779
323.15 K, Liquid, Other PVT measurement, x2 = 0.811 | 758
323.15 K, Liquid, Other PVT measurement, x2 = 0.882 | 701
323.15 K, Liquid, Other PVT measurement, x2 = 0.902 | 672
323.15 K, Liquid, Other PVT measurement, x2 = 0.933 | 584
326.65 K, 9160 kPa, Fluid (supercritical or subcritical phases), x2 = 0.933 | 528
326.65 K, 9180 kPa, Fluid (supercritical or subcritical phases), x2 = 0.933 | 531
